Reference: US5183736A, “Methods using estrogen receptor as a constitutive transcriptional activator and a repressor” (La Jolla Cancer Research Foundation, priority 1990, dated 1993)
“Also recorded” adds a separate entry of the source.

Columns and labels:
ER = ER (Homo sapiens, UniProt P03372); details: 10^-8 M OH-Tam, 10^-7 M T3, FIG. 5
Protocol: (§1) A representative experiment is shown.
(§2) The transient transfection was performed as follows. […] After 24 h cultures were washed with PBS and new medium was added. A modified calcium phosphate precipitation procedure was used for transient transfection^20. 18 h after transfections, cultures were washed twice with PBS, and fresh medium was added together with the desired amount of hormone. After 24 h. cells were collected and cell extract was prepared. β-gal assay was performed as described^21. CAT activity was assayed by using ^3 H-acetylated chloramphenicol and a mixed-phase scintillation measurement, as described in reference 22, below. CPM corrected for β-gal activity represents relative CAT activity. ERE-CAT was constructed by inserting the above synthetic ERE-oligonucleotide with BglII linkers into the BamH1 site of pBLCAT2^23.

ER-ERE complex = assay: dissociation of the ER-ERE complex (gel retardation); format: binding, human; details: 10^-8 M ligand, 50 fold excess unlabelled ERE, 10° C., FIG. 6
Protocol: At time 0, a 50 fold excess of non-labelled ERE was added. After incubation at 10° C. for the indicated time intervals, aliquots were loaded on a running non-denaturing 5% polyacrylamide gel.
The assay was performed as follows.
To measure the stability of the ER-ERE complexes in the presence and absence of ligands, the dissociation of the complexes was analyzed (FIG. 6).

ERval [1] = assay: repressor assay: ERval cotransfected with ER-TRα and ERE-CAT in CV-1 cells; format: cell-based, human; details: 10^-8 M OH-Tam, 10^-7 M T3, FIG. 5
Protocol: CAT activities were measured as described in the Example. A representative experiment is shown.
The transient transfection was performed as follows.

[2] = molecular target: human estrogen receptor (ER, wild type, GLY at position 400) (Homo sapiens, UniProt P03372)
human estrogen receptor (ER, wild type, GLY at position 400), sequence (P03372 whole entry): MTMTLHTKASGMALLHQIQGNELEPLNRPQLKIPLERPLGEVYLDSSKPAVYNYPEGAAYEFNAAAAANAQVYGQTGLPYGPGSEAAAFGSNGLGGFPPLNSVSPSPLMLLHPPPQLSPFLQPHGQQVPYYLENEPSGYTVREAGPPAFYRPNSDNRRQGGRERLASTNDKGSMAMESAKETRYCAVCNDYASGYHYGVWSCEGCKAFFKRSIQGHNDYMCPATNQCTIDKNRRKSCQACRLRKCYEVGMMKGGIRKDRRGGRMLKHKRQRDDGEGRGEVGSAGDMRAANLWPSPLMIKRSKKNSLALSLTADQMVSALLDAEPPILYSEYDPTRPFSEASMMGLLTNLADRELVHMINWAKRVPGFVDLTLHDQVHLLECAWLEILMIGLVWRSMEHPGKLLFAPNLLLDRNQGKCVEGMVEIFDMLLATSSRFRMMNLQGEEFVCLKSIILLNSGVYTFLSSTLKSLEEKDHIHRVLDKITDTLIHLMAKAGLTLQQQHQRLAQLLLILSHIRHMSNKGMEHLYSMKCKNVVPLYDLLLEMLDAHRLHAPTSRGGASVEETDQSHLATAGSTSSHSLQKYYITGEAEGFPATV
Protocol: (§3) (a) Induction of CAT activity. CV-1 cells were transiently cotransfected with 2 μg of ERE-CAT reporter plasmid alone (control) or together with 1 μg of receptor expression vector and 3 μg of β-gal expression vector (pCH110, Pharmacia) which served as an internal control. Carrier DNA (Bluescript) was added to 23 μg total DNA. […] CAT activity is corrected for β-gal activity.
CV-1 cells were cotransfected with 2 μg ERE reporter plasmid alone (control) and with decreasing amounts of ER expression vector as indicated. […] A representative experiment is shown.
(§4) CV-1 cells were cotransfected as described under (a) using ER (c) or ERval (d) expression vectors and reporter plasmid.
(§5) CV-1 cells were transiently cotransfected with ER or ERval expression vectors and reporter plasmid as described in FIG. 1. […] CAT enzyme activities presented are corrected for transfection efficiency by measuring β-gal expression.
CV-1 cells were cotransfected as described above. […] CAT activities were measured as described.
To investigate the transcriptional regulatory properties of the human estrogen receptor, transient cotransfection experiments were carried out in which CV-1 cells were transfected with an estrogen receptor (ER) expression vector and an estrogen responsive CAT (chloramphenicol acetyl-transferase) reporter gene. We investigated the "wild type" receptor^9 that carries a GLY at position 400 (ER) and a mutant receptor that contains a VAL at position 400 (ERval). This mutant receptor was cloned from a human mammary carcinoma cell line cDNA library and was originally thought to represent the wild type hER^10,11. In addition we investigated another mutant receptor that we obtained by deleting the coding sequences for amino acids 442-498 (ERdel) of the hormone binding domain. The estrogen response element (ERE) we use here is a palindromic sequence ([…]) that is derived from the vitellogenin gene promoter^12.
as §2

[3] = tested on: mutant estrogen receptor ERval (VAL at position 400); assay: transient cotransfection ERE-CAT reporter assay in CV-1 cells, ERval; format: cell-based, human
Protocol: as §3, §4, §5
To investigate the transcriptional regulatory properties of the human estrogen receptor, transient cotransfection experiments were carried out in which CV-1 cells were transfected with an estrogen receptor (ER) expression vector and an estrogen responsive CAT (chloramphenicol acetyl-transferase) reporter gene. We investigated the "wild type" receptor^9 that carries a GLY at position 400 (ER) and a mutant receptor that contains a VAL at position 400 (ERval). This mutant receptor was cloned from a human mammary carcinoma cell line cDNA library and was originally thought to represent the wild type hER^10,11. […]

ERval [4] = assay: gel retardation assay, ERval binding to 32P-labelled ERE; parameters: species or system human; details: for effect on binding of ERval to the ERE: high concentrations, FIG. 2b
Protocol: (§6) (a) DNA binding of ER and ER mutants. […] As control, the labelled ERE (lane 1) and the lysate (lane 2) were run alone. Binding of receptors to labelled ERE was competed with 50 fold excess of unlabelled ERE(S) or nonspecific unlabelled oligonucleotides (N).
(§7) To investigate the ER protein-DNA interaction gel retardation assays were performed^5,13. Receptor proteins were synthesized by in vitro transcription/translation^5,7, incubated with ^32 P-labelled ERE, and run on a non-denaturing acrylamide gel (FIG. 2a). The assay was performed as follows. ER and ERval cDNA cloned in Bluescript (Stratagene) were transcribed using T7 or T3 RNA polymerase, and translated, using rabbit reticulocyte translation system (Promega) as described^5. 5 μl of in vitro translated receptor protein were incubated with ^32 P labeled ERE fragment in a reaction mixture containing 20 mM Hepes buffer pH 7.9, 50 mM KCl, 1 mM DTT, 2.5 mM MgCl2, 10% glycerol, and 1 μg poly (dI-dC) at 25° C. for 20 min. Reaction mixtures were loaded on a 5% non-denaturing polyacrylamide gel containing 10 mM HEPES pH 7.9 and 3.3 mM sodium acetate pH 7.9, and electrophoresed. Gels were run at 4° C., 140 V for 3 h with continued circulation of buffer.

[5] = tested on: TRα-ERval hybrid receptor; details: 10^-8 M E2, FIG. 4c
Protocol: as §7

ERdel = details: 10^-8 M E2, FIG. 2a
Protocol: as §6, §7

ER-TRα hybrid receptor = assay: ERE-CAT activation by hybrid receptor ER-TRα alone in CV-1 cells; format: cell-based, human; details: 10^-7 M T3, FIG. 5
Protocol: as §1, §2

[6] = molecular target: estrogen receptor alpha (ER, wild type, Gly400) (Homo sapiens, UniProt P03372 P03372:1-595); assay: EMSA; strong with and without E2 or Tam; 20 mM Hepes pH 7.9, 50 mM KCl, 2.5 mM MgCl2, poly(dI-dC), 25 C; dissociation not substantially changed by E2 or OH-Tam (FIG.); details: tags: rabbit reticulocyte lysate; chain copies: 2; label: 32P
estrogen receptor alpha (ER, wild type, Gly400), sequence (P03372 whole entry, one chain of several): as the sequence (P03372 whole entry) above

[7] = molecular target: ERval (estrogen receptor Val400) (Homo sapiens, UniProt P03372 P03372:1-595, G400V); assay: EMSA; with E2; details: tags: rabbit reticulocyte lysate; chain copies: 2; label: 32P
ERval (estrogen receptor Val400), sequence (P03372 whole entry G400V, one chain of several): as the sequence (P03372 whole entry) above, with G400V counted along it

ER, sequence (P03372 whole entry): as the sequence (P03372 whole entry) above

4-hydroxytamoxifen [OH-Tam] was tested, and the “effect on repression capacity of ER towards ER-TRα” value (ER) was “slightly increases”, the “effect on dissociation of the ER-DNA complex” value (ER-ERE complex) was “no substantial difference” and the “repression of ER-TRα activity by ERval” value (ERval [1]) was “restores the ability of ERval to repress; also recorded: only an efficient repressor of ER-TRα in the presence of OH-Tam”. The “OH-Tam concentration sufficient to repress E2 action on ER” value [2] was “nanomolar concentrations”, the “concentration dependence of the agonist effect on ER” value [2] was “does not increase with increasing concentrations of ligand” and the “effect on ER basal level activity” value [2] was “do not significantly repress”. The “effect on basal level activity of ER at very low receptor concentrations” value [2] was “increases the basal level activity”, the “effect on transcriptional enhancing activity of ER” value [2] was “maintained at the constitutive basal level” and the “effect on activation capacity of ERval” value ([3]; OH-Tam 10^-8 M, no E2, FIG. 3a) was “restores the basal gene activation capacity; also recorded: increased by OH-Tam (10^-8 M) to the basal level of ER wild type”. For the same molecule, the “effect on ERval activation capacity in the presence of E2” value ([3]; OH-Tam with E2 10^-8 M, FIG. 3a) was “reduced to the wild type basal level” and the “effect on binding of ERval to the ERE” value (ERval [4]) was “drastically increase”.

For `C[C@]12CC[C@@H]3c4ccc(O)cc4CC[C@H]3[C@@H]1CC[C@@H]2O` [E2, estradiol], the “increase of affinity of TRα-ERval for DNA (TRE)” value [5] was “several fold”, the “binding of ERdel to DNA with and without E2” value (ERdel) was “binds poorly to DNA in the presence and absence of E2” and the “binding of ERval to ERE with E2” value (ERval [4]; 10^-8 M E2, FIG. 2a) was “binds strongly to ERE when E2 is included”.

In the case of `CC/C(=C(\c1ccccc1)c1ccc(OCCN(C)C)cc1)c1ccccc1` [Tam, tamoxifen], the “effect on binding of ERval to the ERE” value (ERval [4]) is reported as “drastically increase”.

`N[C@@H](Cc1cc(I)c(Oc2ccc(O)c(I)c2)c(I)c1)C(=O)O` [T3] was tested, and the “ERE-CAT gene expression by ER-TRα alone” value (ER-TRα hybrid receptor) was “efficiently enhances”.

B1: ERE palindrome (dsDNA)
DNA 1: TCAGGTCACTGTGACCTGA
DNA 2: TCAGGTCACAGTGACCTGA
B1: binds [6]; binds [7].
